PMC7290285 (Viruses, 2020)
Counter-ions that a name gives are not always drawn. Like-named read-outs stand apart in the source and are kept apart here.

Key:
[1] = tested on: lentiviral particles with wild-type HIV-1 reverse transcriptase (mCherry) in HEK293T-mCat1 cells; assay: microbe, parasite or virus in culture; type: cell-based
[2] = tested on: lentiviral particles with AZT-resistant RT mutant (eGFP) in HEK293T-mCat1 cells; assay: microbe, parasite or virus in culture; type: cell-based, HIV-1
in vitro = conditions: human
HEK293T-mCat1 cells = conditions: 1 µM
[3] = molecular target: eGFP-encoding lentiviral vectors (mutant reverse transcriptase); assay: Flow-cytometry based inhibitor analysis, eGFP vector; type: cell-based, HIV-1; conditions: Figure S2, read-out: IC50 of the AZT-resistant mutant, FC-based analysis
[4] = molecular target: mCherry-encoding lentiviral vectors (wild-type reverse transcriptase); assay: Flow-cytometry based inhibitor analysis, mCherry vector; type: cell-based, HIV-1; conditions: Figure S2, read-out: IC50 of the wild-type virus, FC-based analysis
HIV = tested on: HIV; set-up: method as in earlier work; conditions: read-out: reported IC50; cited from earlier work
[5] = tested on: HIV-1-derived lentiviral particles (wild-type RT and AZT-resistant RT mutant) in HEK293T-mCat1 cells; type: cell-based; conditions: 1 µM
[6] = tested on: luciferase lentiviral particles (wild-type RT) in HEK293T-mCat1 cells; assay: Luciferase-based screening using HEK293T-mCat1 cells; conditions: for Identified as active in the luciferase assay / Relative inhibition [%] of luciferase (wild-type RT): 1 µM; for Identified as active in the luciferase assay: second LOPAC screen; for Relative inhibition [%] of luciferase (wild-type RT): normalized to 1 µM AZT = 100% and DMSO = 0%, HEK293T-mCat1, 3 days
PM1-mCat1 cells = assay: Cytotoxicity determination (CellTiter-Glo) in PM1-mCat1 cell line; type: cell-based, human; conditions: PM1-mCat1 viability relative to DMSO
[7] = tested on: ecotropic pseudo-typed lentiviral particles (luciferase) in PM1-mCat1 cells; assay: Luciferase-based viral integration assay using PM1-mCat1 cells; conditions: Human immunodeficiency virus 1, read-out: IC50 (in µM), viral integration assay
[8] = Human immunodeficiency virus 1, 48 h; read-out: Relative inhibition [%] of mCherry (wild-type RT)
[9] = Human immunodeficiency virus 1, 48 h; read-out: Relative inhibition [%] of eGFP (mutant RT)

SMILES: CC(=O)OCC(CCn1cnc2cnc(N)nc21)COC(C)=O [Famciclovir]
- inhibition at 1 µM [1, 8]: 100%
- inhibition at 1 µM [2, 9]: 100%
- viability at 1 µM (in vitro): 7%

SMILES: Cc1c(O)cccc1C(=O)N[C@@H](CSc1ccccc1)[C@H](O)CN1C[C@H]2CCCC[C@H]2C[C@H]1C(=O)NC(C)(C)C [Nelfinavir mesylate hydrate]
- inhibition at 1 µM [1, 8]: 90%
- inhibition at 1 µM [2, 9]: 49%
- viability at 1 µM (in vitro): 26%

SMILES: NC12CC3CC(CC(C3)C1)C2 [Amantadine hydrochloride]
- inhibition at 1 µM [1, 8]: 6%
- inhibition at 1 µM [2, 9]: -29%
- viability at 1 µM (in vitro): 67%

SMILES: Nc1nccc2c1ncn2[C@@H]1O[C@H](CO)[C@@H](O)[C@H]1O [3-Deazaadenosine]
- Relative inhibition [%] of mCherry (wild-type RT) ([1]; 1 µM): -25%
- Viability [%] (HEK293T-mCat1 cells): 85%
- Relative inhibition [%] of eGFP (mutant RT) ([2]; 1 µM): -34%

SMILES: Nc1nc2c(ncn2COCCO)c(=O)[nH]1 [Acyclovir]
- inhibition at 1 µM [1, 8]: 41%
- inhibition at 1 µM [2, 9]: -33%
- viability at 1 µM (in vitro): 88%

SMILES: Nc1nc2c(ncn2CCOCP(=O)(O)O)c(=O)[nH]1 [PMEG hydrate]
- IC50 [3]: 1200 nM
- IC50 [4]: 560 nM
- IC50 (HIV): 200 nM
- Residual transduction rate, mCherry encoding lentiviral particles, microscopy [1]: 30%
- Relative inhibition [%] of mCherry (wild-type RT) ([1]; 1 µM): 94%
- residual activity in the high-content screening [5]: 5%
- Viability [%] (HEK293T-mCat1 cells): 54%
- Residual transduction rate, eGFP encoding lentiviral particles, microscopy [2]: 5%
- Relative inhibition [%] of eGFP (mutant RT) ([2]; 1 µM): 70%
- Identified as active in the luciferase assay [6]: again identified
- Relative inhibition [%] of luciferase (wild-type RT) [6]: 156%

SMILES: O=C(Nc1ccccc1N1CCCCC1)c1cc(S(=O)(=O)N2CCOCC2)ccc1Cl [T6098586, ClC1=C(C=C(C=C1)S(=O)(=O)N1CCOCC1)C(=O)NC1=C(C=CC=C1)N1CCCCC1]
- Concentration beyond which the compound is toxic (viability drops below 80%) (PM1-mCat1 cells): > 2000 nM
- IC50 [7]: 1.78 µM

SMILES: Nc1ccn([C@H]2CC[C@@H](CO)O2)c(=O)n1 [2',3'-Dideoxycytidine]
- inhibition at 1 µM [1, 8]: 100%
- inhibition at 1 µM [2, 9]: 99%
- viability at 1 µM (in vitro): 7%

SMILES: Oc1ccc(C2CNCCc3c2cc(O)c(O)c3Cl)cc1 (centres unmarked) [Fenoldopam bromide]
- inhibition at 1 µM ([1]; Human immunodeficiency virus 1, 48 h, read-out: Relative inhibition [%] of mCherry (wild-type RT)): 61%
- inhibition at 1 µM ([2]; Human immunodeficiency virus 1, 48 h, read-out: Relative inhibition [%] of eGFP (mutant RT)): 65%
- inhibition at 1 µM ([6]; Human immunodeficiency virus 1, 72 h, read-out: Relative inhibition [%] of luciferase (wild-type RT)): -40%
- viability at 1 µM (in vitro): 73%

SMILES: COc1ccc(N(Cc2ccccc2)S(=O)(=O)c2cccc(C(=O)NCc3ccncc3)c2)cc1 [T5435331, COC1=CC=C(C=C1)N(CC1=CC=CC=C1)S(=O)(=O)C1=CC(=CC=C1)C(=O)NCC1=CC=NC=C1]
- IC50 [7]: 3.14 µM

SMILES: Cl.Nc1ccn([C@@H]2O[C@H](CO)[C@@H](O)[C@@H]2O)c(=O)n1 [Cytosine-1-beta-D-arabino-furanoside hydrochloride]
- Relative inhibition [%] of mCherry (wild-type RT) ([1]; 1 µM): 98%
- Viability [%] (HEK293T-mCat1 cells): 38%
- Relative inhibition [%] of eGFP (mutant RT) ([2]; 1 µM): 95%
- Identified as active in the luciferase assay [6]: again identified
- Relative inhibition [%] of luciferase (wild-type RT) [6]: 211%

SMILES: O=C(CSc1nc2ccccc2c(=O)n1Cc1ccco1)N1CCN(c2ccccc2)CC1 [T5344625, O=C(CSC1=NC2=C(C=CC=C2)C(=O)N1CC1=CC=CO1)N1CCN(CC1)C1=CC=CC=C1]
- IC50 [7]: 1.72 µM

SMILES: CN(C1CCCCC1)S(=O)(=O)c1cccc(C#N)c1 [T5339669, CN(C1CCCCC1)S(=O)(=O)C1=CC(=CC=C1)C#N]
- IC50 [7]: 5.2 µM

SMILES: Cc1nc(SCC(=O)NC(C)c2cccs2)c(C#N)c(C)c1C (centres unmarked) [T5788505, CC(NC(=O)CSC1=C(C#N)C(C)=C(C)C(C)=N1)C1=CC=CS1]
- IC50 [7]: 1.99 µM

SMILES: O=c1[nH]c(CSc2nnc(C3CC3)o2)nc2scc(-c3ccco3)c12 [T5983422, O=C1NC(CSC2=NN=C(O2)C2CC2)=NC2=C1C(=CS2)C1=CC=CO1]
- IC50 [7]: 2.28 µM

SMILES: Cc1ccc(-n2nnnc2Sc2nnnn2-c2ccccc2)c(C)c1 [T5595439, CC1=CC(C)=C(C=C1)N1N=NN=C1SC1=NN=NN1C1=CC=CC=C1]
- IC50 [7]: 2.98 µM

SMILES: O=C(Cc1csc(-c2ccccn2)n1)N=c1sccn1Cc1ccccc1 [T6357587, O=C(CC1=CSC(=N1)C1=NC=CC=C1)N=C1SC=CN1CC1=CC=CC=C1]
- IC50 [7]: 8.3 µM

SMILES: Cc1ccccc1-n1nnnc1SCc1nnc(-c2cccs2)o1 [T5805638, CC1=C(C=CC=C1)N1N=NN=C1SCC1=NN=C(O1)C1=CC=CS1]
- IC50 [7]: 1.45 µM

SMILES: COc1ccc(CC(=O)Nc2ccc(OC)cc2)cc1 [T6053460, COC1=CC=C(CC(=O)NC2=CC=C(OC)C=C2)C=C1]
- IC50 [7]: 6.46 µM

SMILES: CCC(C)c1ccc(S(=O)(=O)Nc2ccc(F)cc2C)cc1 (centres unmarked) [T5989159, CCC(C)C1=CC=C(C=C1)S(=O)(=O)NC1=C(C)C=C(F)C=C1]
- IC50 [7]: 1.67 µM

SMILES: Cc1cn([C@H]2C[C@H](N=[N+]=[N-])[C@@H](CO)O2)c(=O)[nH]c1=O [3‘-Azido-3‘-deoxythymidine]
- Relative inhibition [%] of mCherry (wild-type RT) ([1]; 1 µM): 73%
- Viability [%] (HEK293T-mCat1 cells): 89%
- Relative inhibition [%] of eGFP (mutant RT) ([2]; 1 µM): 38%
- Identified as active in the luciferase assay [6]: again identified
- Relative inhibition [%] of luciferase (wild-type RT) [6]: 85%
- Reduction of the luciferase signal ([6]; AZT control at 1 µM, HEK293T-mCat1): 50%

SMILES: Cc1cccn2c(=O)cc(CN3CC(C(=O)N4CCCCC4)Oc4ccccc43)nc12 (centres unmarked) [T5615894, CC1=CC=CN2C(=O)C=C(CN3CC(OC4=C3C=CC=C4)C(=O)N3CCCCC3)N=C12]
- IC50 [7]: 2.93 µM

SMILES: Cc1ccccc1NC(=O)CNc1ccccc1-c1ccccc1 [T5947021, CC1=C(NC(=O)CNC2=C(C=CC=C2)C2=CC=CC=C2)C=CC=C1]
- IC50 [7]: 5.61 µM

SMILES: Cc1ccc(S(=O)(=O)N2CCOCC2)cc1C(=O)Nc1ccccc1N1CCCC1 [T5530682, CC1=C(C=C(C=C1)S(=O)(=O)N1CCOCC1)C(=O)NC1=C(C=CC=C1)N1CCCC1]
- IC50 [7]: 8.26 µM

SMILES: NC(=O)c1ncn([C@@H]2O[C@H](CO)[C@@H](O)[C@H]2O)n1 [Ribavirin]
- inhibition at 1 µM [1, 8]: -21%
- inhibition at 1 µM [2, 9]: -73%
- viability at 1 µM (in vitro): 81%

SMILES: Cc1cc(Cl)c(C)c(S(=O)(=O)NCCCN2CCCC2=O)c1Cl [T6312190, CC1=C(Cl)C(=C(C)C(Cl)=C1)S(=O)(=O)NCCCN1CCCC1=O]
- IC50 [7]: 2.02 µM

SMILES: CC1CCN(c2nc(CN3CCOCC3)nc3scc(-c4cccs4)c23)CC1 [T5932815, CC1CCN(CC1)C1=C2C(SC=C2C2=CC=CS2)=NC(CN2CCOCC2)=N1]
- IC50 [7]: 2 µM

SMILES: O=C(COc1ccccc1-c1ccccc1)NCC1CCCCC1 [T5339957, O=C(COC1=C(C=CC=C1)C1=CC=CC=C1)NCC1CCCCC1]
- IC50 [7]: 6.88 µM
